Article PMC6586855, “Orobol, an Enzyme-Convertible Product of Genistein, exerts Anti-Obesity Effects by Targeting Casein Kinase 1 Epsilon” (Scientific Reports, 2019)
pIC50: −log10 of the molar value.

Experiments:
PI3Kα = biological target: T1, PI3Kα (Homo sapiens, UniProt P42336); assay: kinase inhibition assay; format: biochemical
T1 construct: gene PIK3CA; commercial kinase; with Phosphatidylinositol 3-kinase regulatory subunit alpha
Description: kinase inhibition assay on PI3Kα

PI3Kβ = biological target: T2, PI3Kβ (Homo sapiens, UniProt P42338); assay: kinase inhibition assay; format: biochemical
T2 construct: gene PIK3CB; commercial kinase; with Phosphatidylinositol 3-kinase regulatory subunit alpha
Description: kinase inhibition assay on PI3Kβ

CK1ε [1] = biological target: T3, CK1ε (Homo sapiens, UniProt P49674); assay: pull-down on orobol-Sepharose 4B beads, immunoblot; format: binding; details: orobol coupled to beads; pH 7.5, 4 °C; competed by ATP
T3 construct: gene CSNK1E; commercial active kinase; Reaction Biology panel for activity, SignalChem protein for pull-down
T3 sequence (P49674 whole entry): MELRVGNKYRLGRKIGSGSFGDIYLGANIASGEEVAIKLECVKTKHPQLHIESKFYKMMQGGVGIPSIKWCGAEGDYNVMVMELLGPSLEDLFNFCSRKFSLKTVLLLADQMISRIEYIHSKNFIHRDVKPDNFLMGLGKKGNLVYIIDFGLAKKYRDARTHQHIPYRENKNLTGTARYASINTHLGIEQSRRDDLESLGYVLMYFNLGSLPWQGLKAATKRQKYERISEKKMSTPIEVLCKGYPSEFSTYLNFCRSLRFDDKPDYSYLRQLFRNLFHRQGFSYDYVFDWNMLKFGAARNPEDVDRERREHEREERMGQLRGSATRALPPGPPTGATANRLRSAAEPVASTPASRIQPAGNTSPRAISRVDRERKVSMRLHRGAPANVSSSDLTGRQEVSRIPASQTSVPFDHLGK

PI3Kγ = biological target: T4, PI3Kγ (Homo sapiens, UniProt P48736); assay: kinase inhibition assay; format: biochemical
T4 construct: gene PIK3CG; commercial kinase
T4 sequence (P48736 whole entry): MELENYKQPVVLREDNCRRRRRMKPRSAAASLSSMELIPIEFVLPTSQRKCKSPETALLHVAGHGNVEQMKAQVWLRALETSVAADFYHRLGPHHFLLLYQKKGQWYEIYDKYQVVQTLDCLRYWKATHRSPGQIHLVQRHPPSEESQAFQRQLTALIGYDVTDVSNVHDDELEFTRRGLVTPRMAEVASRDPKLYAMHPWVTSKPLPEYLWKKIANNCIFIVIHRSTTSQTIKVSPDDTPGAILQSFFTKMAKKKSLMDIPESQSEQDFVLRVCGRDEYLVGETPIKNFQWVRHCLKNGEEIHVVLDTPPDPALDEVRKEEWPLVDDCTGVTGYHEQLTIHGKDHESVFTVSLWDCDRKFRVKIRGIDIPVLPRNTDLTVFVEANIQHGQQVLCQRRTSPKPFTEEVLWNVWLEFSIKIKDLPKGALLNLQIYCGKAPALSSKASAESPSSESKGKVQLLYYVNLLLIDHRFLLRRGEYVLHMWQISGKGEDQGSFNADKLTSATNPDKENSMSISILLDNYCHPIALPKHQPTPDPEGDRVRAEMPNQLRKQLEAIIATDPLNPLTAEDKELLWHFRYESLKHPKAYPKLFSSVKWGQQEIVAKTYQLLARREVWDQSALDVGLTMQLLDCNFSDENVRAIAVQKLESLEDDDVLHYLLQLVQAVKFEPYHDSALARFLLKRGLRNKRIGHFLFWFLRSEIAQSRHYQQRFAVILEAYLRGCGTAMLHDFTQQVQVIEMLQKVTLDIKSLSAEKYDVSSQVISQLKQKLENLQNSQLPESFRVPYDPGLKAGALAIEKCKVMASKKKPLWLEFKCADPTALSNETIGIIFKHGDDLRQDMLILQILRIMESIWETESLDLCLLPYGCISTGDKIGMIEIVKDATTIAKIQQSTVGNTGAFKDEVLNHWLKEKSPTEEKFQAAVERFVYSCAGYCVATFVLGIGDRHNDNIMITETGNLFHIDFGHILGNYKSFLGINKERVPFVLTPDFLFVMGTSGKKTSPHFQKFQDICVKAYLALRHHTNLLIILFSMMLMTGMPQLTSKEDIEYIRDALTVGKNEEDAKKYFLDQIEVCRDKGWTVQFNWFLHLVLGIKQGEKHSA
Description: kinase inhibition assay on PI3Kγ

KHS/MAP4K5 = biological target: T5, KHS/MAP4K5 (Homo sapiens, UniProt Q9Y4K4); assay: […]-ATP kinase assay, P81 filter binding; format: biochemical
T5 construct: Reaction Biology kinase panel

MNK1 = biological target: T6, MNK1 (Homo sapiens, UniProt Q9BUB5); assay: […]-ATP kinase assay, P81 filter binding; format: biochemical
T6 construct: gene MKNK1; Reaction Biology kinase panel
T6 sequence (Q9BUB5 whole entry): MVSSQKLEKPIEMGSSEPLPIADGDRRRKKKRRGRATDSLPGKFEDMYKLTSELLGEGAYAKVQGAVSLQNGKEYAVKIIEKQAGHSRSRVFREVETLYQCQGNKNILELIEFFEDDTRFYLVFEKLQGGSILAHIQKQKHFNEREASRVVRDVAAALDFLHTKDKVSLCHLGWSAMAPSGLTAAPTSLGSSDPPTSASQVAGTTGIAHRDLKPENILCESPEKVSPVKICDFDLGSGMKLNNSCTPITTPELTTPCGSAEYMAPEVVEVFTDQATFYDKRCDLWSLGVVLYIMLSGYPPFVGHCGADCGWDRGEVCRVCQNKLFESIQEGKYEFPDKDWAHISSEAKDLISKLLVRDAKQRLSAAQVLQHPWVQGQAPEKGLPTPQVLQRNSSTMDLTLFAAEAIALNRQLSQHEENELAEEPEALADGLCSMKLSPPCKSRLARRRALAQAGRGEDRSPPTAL

KDR/VEGFR2 = biological target: T7, KDR/VEGFR2 (Homo sapiens, UniProt P35968); assay: […]-ATP kinase assay, P81 filter binding; format: biochemical
T7 construct: Reaction Biology kinase panel

TNIK = biological target: T8, TNIK (Homo sapiens, UniProt Q9UKE5); assay: […]-ATP kinase assay, P81 filter binding; format: biochemical
T8 construct: Reaction Biology kinase panel

MUSK = biological target: T9, MUSK (Homo sapiens, UniProt O15146); assay: […]-ATP kinase assay, P81 filter binding; format: biochemical
T9 construct: Reaction Biology kinase panel
T9 sequence (O15146 517-869 limits assumed): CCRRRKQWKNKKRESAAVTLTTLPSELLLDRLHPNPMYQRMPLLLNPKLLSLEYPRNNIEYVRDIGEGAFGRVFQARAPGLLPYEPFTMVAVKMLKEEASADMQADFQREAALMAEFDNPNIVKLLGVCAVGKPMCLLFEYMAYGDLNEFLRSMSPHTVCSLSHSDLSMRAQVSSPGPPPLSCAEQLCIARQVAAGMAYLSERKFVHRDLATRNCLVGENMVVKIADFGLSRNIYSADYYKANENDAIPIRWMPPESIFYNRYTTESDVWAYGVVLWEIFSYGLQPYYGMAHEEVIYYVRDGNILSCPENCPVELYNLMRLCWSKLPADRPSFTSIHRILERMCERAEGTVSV

PI3Kδ = biological target: T10, PI3Kδ (Homo sapiens, UniProt O00329); assay: kinase inhibition assay; format: biochemical
T10 construct: gene PIK3CD; commercial kinase; with Phosphatidylinositol 3-kinase regulatory subunit alpha
T10 sequence (O00329 whole entry): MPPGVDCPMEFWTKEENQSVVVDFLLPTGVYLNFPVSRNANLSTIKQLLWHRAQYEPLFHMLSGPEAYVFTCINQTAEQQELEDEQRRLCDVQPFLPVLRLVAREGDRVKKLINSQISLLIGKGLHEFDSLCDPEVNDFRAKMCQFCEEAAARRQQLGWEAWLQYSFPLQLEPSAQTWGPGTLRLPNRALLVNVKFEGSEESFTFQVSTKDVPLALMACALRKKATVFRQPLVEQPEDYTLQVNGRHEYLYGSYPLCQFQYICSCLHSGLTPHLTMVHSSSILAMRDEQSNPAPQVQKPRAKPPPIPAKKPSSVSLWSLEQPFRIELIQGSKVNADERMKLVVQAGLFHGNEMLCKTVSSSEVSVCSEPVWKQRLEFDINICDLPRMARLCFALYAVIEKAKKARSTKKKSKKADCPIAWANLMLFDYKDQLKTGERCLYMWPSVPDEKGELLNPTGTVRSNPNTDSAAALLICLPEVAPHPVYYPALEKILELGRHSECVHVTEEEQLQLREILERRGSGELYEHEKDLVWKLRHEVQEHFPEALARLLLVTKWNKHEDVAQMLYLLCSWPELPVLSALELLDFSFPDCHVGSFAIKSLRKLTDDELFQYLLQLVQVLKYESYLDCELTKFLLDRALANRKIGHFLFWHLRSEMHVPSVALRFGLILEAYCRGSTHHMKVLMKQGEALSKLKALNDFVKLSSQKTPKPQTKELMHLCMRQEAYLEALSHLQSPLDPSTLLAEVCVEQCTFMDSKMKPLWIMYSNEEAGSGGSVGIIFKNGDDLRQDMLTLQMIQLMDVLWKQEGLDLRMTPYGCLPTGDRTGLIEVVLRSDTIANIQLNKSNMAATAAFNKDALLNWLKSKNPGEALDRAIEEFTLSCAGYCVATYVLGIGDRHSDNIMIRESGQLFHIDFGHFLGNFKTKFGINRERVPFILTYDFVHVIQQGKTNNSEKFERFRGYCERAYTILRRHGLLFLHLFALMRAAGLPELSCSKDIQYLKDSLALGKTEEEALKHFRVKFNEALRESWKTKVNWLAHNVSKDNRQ
T10 sequence (P27986 2-724 partner): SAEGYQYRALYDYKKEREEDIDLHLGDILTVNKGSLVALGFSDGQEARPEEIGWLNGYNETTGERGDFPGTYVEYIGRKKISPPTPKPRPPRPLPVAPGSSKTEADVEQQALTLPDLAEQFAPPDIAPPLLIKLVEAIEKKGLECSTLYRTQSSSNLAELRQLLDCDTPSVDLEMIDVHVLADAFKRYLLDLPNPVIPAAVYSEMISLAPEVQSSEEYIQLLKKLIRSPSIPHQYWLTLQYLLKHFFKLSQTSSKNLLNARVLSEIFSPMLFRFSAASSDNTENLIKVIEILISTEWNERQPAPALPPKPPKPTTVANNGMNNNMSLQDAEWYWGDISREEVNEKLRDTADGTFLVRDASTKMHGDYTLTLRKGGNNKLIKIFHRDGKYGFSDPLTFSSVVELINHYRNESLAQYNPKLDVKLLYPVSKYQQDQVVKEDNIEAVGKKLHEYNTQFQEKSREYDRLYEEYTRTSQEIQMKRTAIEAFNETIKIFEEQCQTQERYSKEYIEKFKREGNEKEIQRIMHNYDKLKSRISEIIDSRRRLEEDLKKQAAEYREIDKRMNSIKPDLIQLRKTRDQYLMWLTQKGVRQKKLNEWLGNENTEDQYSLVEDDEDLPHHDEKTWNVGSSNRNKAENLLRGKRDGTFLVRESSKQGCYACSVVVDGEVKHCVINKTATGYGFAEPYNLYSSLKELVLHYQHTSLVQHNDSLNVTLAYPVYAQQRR
Description: kinase inhibition assay on PI3Kδ

CK1ε [2] = biological target: T3, CK1ε; assay: […]-ATP kinase assay, P81 filter binding; format: biochemical
NEK6 = biological target: T11, NEK6 (Homo sapiens, UniProt Q9HC98); assay: […]-ATP kinase assay, P81 filter binding; format: biochemical
T11 construct: Reaction Biology kinase panel
T11 sequence (Q9HC98 whole entry): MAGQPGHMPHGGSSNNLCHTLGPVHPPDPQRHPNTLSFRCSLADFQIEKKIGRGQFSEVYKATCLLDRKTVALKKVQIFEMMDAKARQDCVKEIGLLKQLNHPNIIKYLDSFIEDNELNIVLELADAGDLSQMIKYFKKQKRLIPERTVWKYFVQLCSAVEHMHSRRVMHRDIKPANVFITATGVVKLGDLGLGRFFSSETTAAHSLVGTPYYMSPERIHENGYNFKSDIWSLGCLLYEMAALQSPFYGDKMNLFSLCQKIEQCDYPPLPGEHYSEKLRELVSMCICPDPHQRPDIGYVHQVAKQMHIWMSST

CDK5/p25 = biological target: T12, CDK5/p25 (Homo sapiens, UniProt Q00535); assay: […]-ATP kinase assay, P81 filter binding; format: biochemical
T12 construct: Reaction Biology kinase panel; complex with p25, the C-terminal fragment of p35
T12 sequence (Q00535 whole entry, the tested form may be a part): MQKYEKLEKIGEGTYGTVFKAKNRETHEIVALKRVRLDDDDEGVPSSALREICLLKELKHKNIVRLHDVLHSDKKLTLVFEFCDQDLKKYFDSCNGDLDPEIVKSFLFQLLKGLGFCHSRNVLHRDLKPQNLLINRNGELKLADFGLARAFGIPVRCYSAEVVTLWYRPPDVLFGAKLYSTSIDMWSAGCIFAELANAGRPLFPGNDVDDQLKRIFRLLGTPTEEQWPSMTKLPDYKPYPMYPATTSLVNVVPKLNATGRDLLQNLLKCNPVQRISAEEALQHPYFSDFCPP
T12 sequence (Q15078 99-307 partner limits assumed): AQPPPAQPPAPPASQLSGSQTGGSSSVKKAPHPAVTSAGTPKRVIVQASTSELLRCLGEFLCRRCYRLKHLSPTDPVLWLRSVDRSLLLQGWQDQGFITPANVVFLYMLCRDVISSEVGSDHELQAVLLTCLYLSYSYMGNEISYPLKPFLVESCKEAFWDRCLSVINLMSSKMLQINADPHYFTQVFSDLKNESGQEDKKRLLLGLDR

RON/MST1R = biological target: T13, RON/MST1R (Homo sapiens, UniProt Q04912); assay: […]-ATP kinase assay, P81 filter binding; format: biochemical
T13 construct: Reaction Biology kinase panel
T13 sequence (Q04912 979-1400 limits assumed): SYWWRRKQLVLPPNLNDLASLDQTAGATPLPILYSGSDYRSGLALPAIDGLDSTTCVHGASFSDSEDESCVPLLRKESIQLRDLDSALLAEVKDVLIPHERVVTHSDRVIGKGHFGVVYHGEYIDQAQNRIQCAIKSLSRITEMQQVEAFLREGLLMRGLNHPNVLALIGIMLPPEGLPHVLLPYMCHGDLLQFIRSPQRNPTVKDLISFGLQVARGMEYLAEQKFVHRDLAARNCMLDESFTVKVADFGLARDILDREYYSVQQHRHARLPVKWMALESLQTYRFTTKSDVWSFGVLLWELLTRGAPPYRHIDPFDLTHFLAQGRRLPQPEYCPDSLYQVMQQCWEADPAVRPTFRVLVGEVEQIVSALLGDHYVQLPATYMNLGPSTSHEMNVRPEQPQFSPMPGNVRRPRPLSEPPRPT

PBK/TOPK = biological target: T14, PBK/TOPK (Homo sapiens, UniProt Q96KB5); assay: […]-ATP kinase assay, P81 filter binding; format: biochemical
T14 construct: Reaction Biology kinase panel
T14 sequence (Q96KB5 1-322): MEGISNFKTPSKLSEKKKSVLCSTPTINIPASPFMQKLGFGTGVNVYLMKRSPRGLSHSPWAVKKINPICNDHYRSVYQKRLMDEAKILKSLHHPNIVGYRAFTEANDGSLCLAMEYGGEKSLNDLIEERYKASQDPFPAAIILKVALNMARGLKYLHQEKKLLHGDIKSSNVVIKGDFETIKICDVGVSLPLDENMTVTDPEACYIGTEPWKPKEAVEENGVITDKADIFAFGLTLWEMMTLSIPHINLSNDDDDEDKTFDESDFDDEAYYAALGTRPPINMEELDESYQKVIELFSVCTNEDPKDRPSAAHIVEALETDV

CK1ε [3] = biological target: T15, CK1ε (Mus musculus, UniProt Q9JMK2); assay: pull-down from 3T3-L1 lysate on orobol-Sepharose 4B beads, immunoblot; format: biochemical; details: orobol coupled to beads; pH 7.5, 4 °C
T15 construct: gene Csnk1e; endogenous protein in 3T3-L1 preadipocyte lysate, detected with anti-CK1ε antibody
T15 sequence (Q9JMK2 1-416): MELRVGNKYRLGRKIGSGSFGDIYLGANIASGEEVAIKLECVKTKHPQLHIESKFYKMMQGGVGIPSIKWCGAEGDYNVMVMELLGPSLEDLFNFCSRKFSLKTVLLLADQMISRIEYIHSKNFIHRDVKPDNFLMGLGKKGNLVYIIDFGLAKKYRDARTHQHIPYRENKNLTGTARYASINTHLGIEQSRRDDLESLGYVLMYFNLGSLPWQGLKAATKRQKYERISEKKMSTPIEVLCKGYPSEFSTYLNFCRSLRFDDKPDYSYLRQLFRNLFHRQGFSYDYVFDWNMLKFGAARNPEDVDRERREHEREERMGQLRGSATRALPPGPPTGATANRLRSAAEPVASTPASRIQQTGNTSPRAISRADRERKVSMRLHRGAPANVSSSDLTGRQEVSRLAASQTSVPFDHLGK

pIC50 (PI3Kα): 5.46
pIC50 (PI3Kβ): 5.26
pIC50 (PI3Kγ): 5.32
pIC50 (KHS/MAP4K5): 5.85
pIC50 (MNK1): 5.67
pIC50 (KDR/VEGFR2): 5.35
pIC50 (TNIK): 5.81
pIC50 (MUSK): 5.83
pIC50 (PI3Kδ): 5.28
pIC50 (CK1ε [2]): 5.91
activity at 1 µM (NEK6): 79%
activity at 1 µM (CDK5/p25): 78%
activity at 1 µM (RON/MST1R): 78%
pIC50 (PBK/TOPK): 5.78
SMILES: O=c1c(-c2ccc(O)c(O)c2)coc2cc(O)cc(O)c12 [orobol]
pull-down on orobol-Sepharose 4B beads, immunoblot (CK1ε [1]): The CK1ε kinase bound to orobol–sepharose 4B beads, but not to control sepharose 4B beads
pull-down from 3T3-L1 lysate on orobol-Sepharose 4B beads, immunoblot (CK1ε [3]): Orobol directly interacts with CK1ε in 3T3-L1 cell lysates
